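Cells were grown in 96-well plates and exposed to each compound for 48 hours at five concentrations; endpoints were interpolated linearly between bracketing concentrations, or set to the highest concentration if not reached. GI50: concentration for 50% inhibition of growth.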 The source made the active and inactive calls. Cut-off read from the data, not from the text of the source: active = GI50 up to about 1.1 µM and inactive = higher.
Key:
Assay in all cases: NCI tumour cell line growth inhibition, 48 h
K562 = test system: K562
SK-MEL-2 = test system: SK-MEL-2
SF-295 = test system: SF-295
SNB-19 = test system: SNB-19
SK-MEL-28 = test system: SK-MEL-28
NCI-H460 = test system: NCI-H460
TK-10 = test system: TK-10
SNB-75 = test system: SNB-75
A549 = test system: A549
UACC-62 = test system: UACC-62
NCI-H522 = test system: NCI-H522
M14 = test system: M14
OVCAR-8 = test system: OVCAR-8
SF-268 = test system: SF-268
HT-29 = test system: HT-29
Malme-3M = test system: Malme-3M
OVCAR-5 = test system: OVCAR-5
ACHN = test system: ACHN
A498 = test system: A498
NCI-H226 = test system: NCI-H226

Measured: GI50

O=C1C(Cl)N(c2cccc(Cl)c2)C1c1c[nH]c2ccccc12 (configuration not stated)
inactive: K562 > 100 µM | SK-MEL-2 > 100 µM | SF-295 > 100 µM | SNB-19 > 100 µM | SK-MEL-28 > 100 µM | NCI-H460 > 100 µM | TK-10 > 100 µM | SNB-75 > 100 µM | A549 > 100 µM | UACC-62 > 100 µM | NCI-H522 > 100 µM | M14 > 100 µM | OVCAR-8 > 100 µM | SF-268 > 100 µM | HT-29 > 100 µM | Malme-3M > 100 µM

O=C1NC2=C(CCCC/C2=N\O)C12CCCCC2
inactive: K562 > 100 µM | SF-295 > 100 µM | SNB-19 > 100 µM | SK-MEL-28 > 100 µM | NCI-H460 > 100 µM | TK-10 > 100 µM | SNB-75 > 100 µM | A549 > 100 µM | OVCAR-5 > 100 µM | UACC-62 > 100 µM | M14 > 100 µM | ACHN > 100 µM | A498 > 100 µM | SF-268 > 100 µM | HT-29 > 100 µM | Malme-3M > 100 µM | NCI-H226 > 100 µM

Cc1ccc(Nc2n[nH]c(NS(=O)(=O)c3cc(C(=O)Nc4ccc(Cl)cc4)c(Cl)cc3S)n2)cc1
inactive: K562 > 100 µM | SF-295 > 100 µM | SNB-19 > 100 µM | SK-MEL-28 > 100 µM | NCI-H460 36 µM | TK-10 > 100 µM | SNB-75 > 100 µM | A549 99.8 µM | OVCAR-5 > 100 µM | UACC-62 > 100 µM | M14 > 100 µM | ACHN > 100 µM | OVCAR-8 > 100 µM | SF-268 > 100 µM | HT-29 89.9 µM | Malme-3M 50.5 µM

O=C(O)Cc1cccc2c1Oc1ccccc1S2
inactive: K562 > 100 µM | SK-MEL-2 > 100 µM | SF-295 > 100 µM | SNB-19 > 100 µM | SK-MEL-28 > 100 µM | NCI-H460 > 100 µM | TK-10 > 100 µM | SNB-75 > 100 µM | A549 > 100 µM | UACC-62 > 100 µM | M14 > 100 µM | ACHN > 100 µM | A498 > 100 µM | OVCAR-8 > 100 µM | SF-268 > 100 µM | HT-29 > 100 µM | Malme-3M > 100 µM | NCI-H226 > 100 µM
